{
  "source": "paper PMC8692993",
  "about": "“PPARα and PPARγ activation is associated with pleural mesothelioma invasion but therapeutic inhibition is ineffective” (iScience, 2021)",
  "key": {"[1]": {"assay": "Protein binding by rapid equilibrium dialysis, reporter assay media", "format": "in vitro ADME", "conditions": "DMEM/F-12 with 5% dextran-coated charcoal-stripped FCS, mean ± SD, n=3", "experimental": "(§1) Protein binding was determined via rapid equilibrium dialysis (RED) with incorporation of a pre-saturation step ([Charman et al., 2020]). The pre-incubation process involved RED system being exposed to fresh aqueous solutions of GW6471 (400 nM) for three periods (including one overnight). For the protein binding determination, GW6471 was spiked into the diluted mouse plasma (10% (v/v); in PBS) or DMEM/F-12 media containing 5% dextran-coated charcoal-stripped FCS (at 2000 nM) and dialysed against protein-free PBS (for plasma) or base media (DMEM/F-12) containing GW6471 at 40 nM for 24 h at 37°C under ambient atmosphere on a plate shaker. Concentrations of GW6471 in dialysate and donor samples collected at the end of the dialysis period were determined via LC–MS.\n(§2) Compound binding was assessed on the basis of the measured concentrations in dialysate and donor samples at the end of the dialysis period.\n(§3) Based on the post-dialysis measured concentrations in donor (Ctotal_post_dialysis) and dialysate (Cunbound) for each RED unit, the unbound fraction of compound in assay matrix (fu_diluted) was calculated according to Equation 1 below:(Equation 1) fu=Cunbound/Ctotal_post−dialysis\n(§4) For media, the value for fu calculated according to Equation 1 above was used without further correction. […]"}, "[2]": {"assay": "Protein binding by rapid equilibrium dialysis, mouse plasma", "format": "in vitro ADME", "conditions": "corrected from 10% diluted plasma, mean ± SD, n=3", "experimental": "as §1, §2, §3, §4"}, "[3]": {"system": "angiopoietin-like 4 (Angptl4)", "assay": "Angptl4 immunohistochemistry of treated tumors", "format": "in vivo, BALB/c mice", "conditions": "GW6471- versus vehicle-treated tumors", "experimental": "Tissues were fixed with 4% paraformaldehyde for 48–72 h and embedded in paraffin. 5 μm sections were cut by microtome (Thermo Fisher Scientific) and placed on Slide SuperFrost Plus White 1 mm (Thermo Fisher Scientific). Slides were deparaffinised as previously explained for hematoxylin and eosin staining. Antigen retrieval was performed with 10 mM citrate, pH6, at high pressure in a pressure cooker for 15 min and 5 min slow release. Sections were rinsed twice with TBST buffer (Tris-Buffer Saline with Tween, 20 mM Tris, 500 mM NaCl, and 0.05% Tween 20) for 5 min under agitation. Quench tissue peroxidase H2O2 was performed for 10 min at room temperature with 3% H2O2 in distilled H2O. The Vectastain® ABC kit, peroxidase (Rabbit IgG) (Vector Laboratories) was used for the following steps. Non-specific binding was performed with 1.5% Normal goat serum in PBS for 20 min at room temperature. Primary antibody Angptl4 (1:50) (409800, Invitrogen), was diluted in PBS/1.5% goat serum and incubated 1 h at room temperature. The secondary biotinylated anti-Rabbit IgG (1:200) (Vector Laboratories), was diluted in PBS and incubated for 30 min at room temperature. Vectastain ABC reagent (Vector Laboratories) was used as per manufacturer's instructions, mixing Reagent A with Reagent B (1:1) and incubating at room temperature 30 min prior use. […]"}, "[4]": {"system": "VGE62 human mesothelioma cell line", "assay": "Matrigel invasion scratch assay", "format": "cell-based", "conditions": "VGE62, 0.5, 1, 10 μM, concentration-dependent, p <0.0001", "experimental": "Cells were harvested and seeded in Incucyte®ImageLock 96-well plates (Essen BioScience) at a density of 10 x 10^4 cells/mL overnight. A scratch wound was performed on the confluent cells with the 96-pin IncuCyte WoundMaker Tool (Essen BioScience). For migration assays, cells were washed with PBS once before adding 100 μL media with GW6471 at indicated concentrations. For matrigel invasion assays, cells were washed with PBS once before adding 50 μL of matrigel basement membrane matrix (FAL356231; Corning, NY, USA) at 8 mg/mL; lastly 100 μL media with GW6471 at indicated concentrations were added on top of the matrigel. Wounded cells were incubated in the IncuCyte ZOOM® at 37°C with 5% CO2. Data were analysed using the Incucyte® Scratch Wound Cell Migration Software Module and calculating the Relative Wound Density (%) (RWD) for both migration and invasion assays."}, "[5]": {"target": "T1, PPARγ (Homo sapiens, UniProt P37231)", "T1 sequence (P37231 238-503 limits assumed)": "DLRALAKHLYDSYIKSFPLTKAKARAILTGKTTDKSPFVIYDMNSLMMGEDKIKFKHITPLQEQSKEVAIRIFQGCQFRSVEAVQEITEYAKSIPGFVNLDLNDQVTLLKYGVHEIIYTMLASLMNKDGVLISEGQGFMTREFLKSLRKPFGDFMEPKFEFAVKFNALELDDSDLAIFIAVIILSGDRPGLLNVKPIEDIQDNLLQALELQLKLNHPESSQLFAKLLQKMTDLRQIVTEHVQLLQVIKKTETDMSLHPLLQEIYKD", "design": "expressed in transfected cells; host or cells: HG5LN (HeLa-derived, GAL4RE-luciferase); method as in Goldstein et al., 2017", "conditions": "an IC50 value was not reported, ref Goldstein et al., 2017, read-out: Functionality, Lit. IC50; cited from earlier work"}, "[6]": {"target": "T2, PPARδ (Homo sapiens, UniProt Q03181)", "T2 construct": "expressed in transfected cells; host or cells: HG5LN (HeLa-derived, GAL4RE-luciferase)", "T2 sequence (Q03181 211-439 limits assumed)": "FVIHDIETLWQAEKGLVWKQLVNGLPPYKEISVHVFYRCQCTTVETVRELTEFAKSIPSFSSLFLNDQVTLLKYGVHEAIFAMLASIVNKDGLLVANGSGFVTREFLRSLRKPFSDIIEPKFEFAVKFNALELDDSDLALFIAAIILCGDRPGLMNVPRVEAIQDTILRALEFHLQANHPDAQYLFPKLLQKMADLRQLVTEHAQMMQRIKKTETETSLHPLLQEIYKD", "assay": "HG5LN reporter cell assay, PPARδ", "format": "cell-based", "conditions": "HG5LN PPARδ reporter cells"}},
  "data": [
    {"compound": "CCC(=O)NC[C@H](Cc1ccc(OCCc2nc(-c3ccccc3)oc2C)cc1)N/C(C)=C\\C(=O)c1ccc(C(F)(F)F)cc1", "note": "[GW6471]", "values": [
      {"measurement": "Fraction unbound (fu)", "setting": "[1]", "value": "0.0037 ± 0.0006"},
      {"measurement": "Fraction unbound (fu)", "setting": "[2]", "value": "0.00059 ± 0.00005"},
      {"measurement": "Angptl4 staining in tumors", "setting": "[3]", "value": "decreased staining of Angptl4"},
      {"measurement": "Invasion into matrigel (relative wound density)", "setting": "[4]", "value": "significantly inhibited invasion"},
      {"measurement": "IC50", "setting": "[5]", "value": "< 1000", "unit": "nM"},
      {"measurement": "Effect on PPARδ in reporter cell assay", "setting": "[6]", "value": "no effect"}
    ]}
  ]
}
